Each structure is given as a SMILES string.

The target of series [1] is T1, human insulin receptor (Homo sapiens, UniProt P06213).
T1 construct: expressed in transfected cells; host or cells: NIH 3T3 (3T3HIR)
As to the kind of experiment: Whole-cell phosphorylation assay (3T3HIR cells). Type of series: cell-based. The following applies: 15 min, anti-phosphotyrosine Western, various concentrations (FIG. 2). On the procedure: Whole-cell Phosphorylation Assay:
The initial step in insulin signaling is phosphorylation of the insulin receptor in response to insulin binding. NIH 3T3 cells overexpressing human insulin receptor (3T3HIR) were grown for 2 days at a density of 2×10^5/ml cells in 6 well culture dishes in DMEM with 10% FBS and L-glutamine. Prior to the experiment the cells were serum-starved overnight with DMEM with 0.1% BSA. The following morning, the cells were washed with PBS and the medium was replaced with 150 mM NaCl, 1.7 mM KCl, 0.9 mM CaCl2, K2HPO4 (pH 7.4), to which were added either the experimental compounds, or their vehicle (DMSO). Insulin or its vehicle (0.01% BSA) was diluted in the assay buffer (containing test compound or vehicle, respectively) to a final concentration of 2.5 nM. After incubating for 15 min, the cells were washed with cold PBS twice and lysed in 50 mM Tris.HCl, pH 7.4 150 mM NaCl, 0.25% sodium deoxycholate, 1% NP-40, 1 mM EGTA, 1 mM PMSF, 1 mM Na3VO4, 1 mM NaF, 1 ug/ml each of Aprotinin, Leupeptin and Pepstatin. The cell lysates were clarified by centrifugation at 12000 rpm, and the supernatants were estimated for protein concentration. Total cell lysate ([…]) was boiled with 2× SDS-PAGE sample buffer for 3 min and loaded into 7.5% SDS-PAGE along with Amersham rainbow marker protein as a molecular weight standard. […]

Series [2] addresses T2, EGFR (Homo sapiens, UniProt P00533).
T2 construct: endogenous in cells; host or cells: A431
As to the kind of experiment: Selectivity: EGFR phosphorylation in A431 cells. Type of series: cell-based. The following applies: in the presence or absence of EGF (2.5 ng/ml). On the procedure: Selectivity vs. EGFR, PDGFR and IGFR
In order to determine the selectivity of these compounds for the insulin receptor, their effects on other receptors that share a similar mechanism of activation with the insulin receptor were examined. Human epidermoid carcinoma (A431) cells were plated at a density of 2×10^5 cells per well in 6-well dishes in DMEM with 10% FBS and L-Glutamine and allowed to grow to 75% confluence. Prior to the experiment, the cells were serum-starved overnight with DMEM with 0.1% BSA. The following morning, the cells were washed with PBS and the medium was replaced with 150 mM NaCl, 1.7 mM KCl, 0.9 mM CaCl2, K2HPO4 (pH 7.4), to which was added either the experimental compound or its vehicle (DMSO). Epidermal Growth Factor (EGF) or its vehicle (0.01% BSA) was diluted in the assay buffer (containing test compound or vehicle respectively) to a final concentration of 2.5 ng/ml. After incubating for 15 min, the cells were washed with cold PBS twice and lysed in 50 mM Tris.HCl pH 7.4, 150 mM NaCl, 0.25% sodium deoxycholate, 1% NP40, 1 mM EGTA, 1 mM PMSF, 1 mM Na3VO4, 1 mM NaF, 1 ug/ml each of Aprotinin, Leupeptin and Pepstatin. The cell lysates were clarified by centrifugation at 12000 rpm, and the supernatants were estimated for protein concentration. […]

Series [3] concerns platelet-derived growth factor (PDGF) receptor. Briefly: Selectivity: PDGF receptor phosphorylation. Type of series: cell-based. The following applies: in the absence or presence of PDGF.
Series [4] relates to STZ/HFD rat. As to the kind of experiment: Blood glucose determination in the STZ/HFD rat model of Type 2 diabetes. Type of series: in vivo. The following applies: STZ/HFD rat. The text has this:
Blood Glucose Determination in the STZ/HFD Rat Model of Type 2 Diabetes
Representative compounds were also profiled in genetically normal rats given a high-fat diet followed by treatment with a low dose of streptozotocin (STZ/HFD). This treatment regimen recreates both the insulin resistance and the hyperglycemia seen in human Type 2 diabetes. Male CD rats (Jackson Labs, Bar Harbor Me.) were maintained according to NIH guidelines, housed two per cage, and fed either standard lab chow (Tekland Laboratory Diets, James Grain, San Jose, Calif.) or the same chow supplemented with chocolate bars, cookies, and potato chips such that their final diet contained 30% fat by weight (high-fat diet; HFD). After two weeks of this diet, the animals were given an injection of freshly-prepared streptozotocin (35 mg/kg, i.p.) and continued on the HFD. Animals that achieved glucose levels of 190 to 380 mg/dl were used in this study. At the end of the 12-hour light/dark cycle, and just prior to the experiment, the animals were moved to new cages with no food available until 4 hours after treatment. The compound or vehicle (PBS) was given p.o. by gavage, and blood was sampled by approved IACUC protocol using tail cap method. Glucose was determined using the Glucometer Elite (Bayer, Elkhart, Ind.).
The reduction was maximal (20%) 4 hours after the administration of Compound 15.

Series [5] deals with STZ/HFD rats. Briefly: Multi-dosing in STZ/HFD rats. Type of series: in vivo, rat. The following applies: 30 mg/kg oral daily, 3 days (FIG. 14). As for the experimental part:
Multi-Dosing in STZ/HFD Rats
STZ/HFD rats were prepared as in example 19. Compound 15 or an equivalent amount of the vehicle (PBS) was administered daily by the oral route at a dose of 30 mg/kg. Blood samples were taken by an IACUC-approved protocol (tail cap method) immediately before each dose and 4 and 6 (day one only) hours later. Blood glucose levels were measured using a Glucometer Elite (Bayer, Elkhart, Ind.). The blood glucose levels of the vehicle-treated group fell over the course of the experiment as the animals recovered from the low dose of STZ (FIG. 14).

In series [6] the test system is male CD rats. Briefly: Acute toxicity in CD rats. Format: in vivo. The following applies: p.o., 300 mg/kg in PBS. On the procedure: Compound 15 was administered in PBS vehicle to male db/db mice (i.p.) and male CD rats (p.o.) at 300 mg/kg, which is approximately 10 times its effective dose.

T2 sequence (P00533 25-1210): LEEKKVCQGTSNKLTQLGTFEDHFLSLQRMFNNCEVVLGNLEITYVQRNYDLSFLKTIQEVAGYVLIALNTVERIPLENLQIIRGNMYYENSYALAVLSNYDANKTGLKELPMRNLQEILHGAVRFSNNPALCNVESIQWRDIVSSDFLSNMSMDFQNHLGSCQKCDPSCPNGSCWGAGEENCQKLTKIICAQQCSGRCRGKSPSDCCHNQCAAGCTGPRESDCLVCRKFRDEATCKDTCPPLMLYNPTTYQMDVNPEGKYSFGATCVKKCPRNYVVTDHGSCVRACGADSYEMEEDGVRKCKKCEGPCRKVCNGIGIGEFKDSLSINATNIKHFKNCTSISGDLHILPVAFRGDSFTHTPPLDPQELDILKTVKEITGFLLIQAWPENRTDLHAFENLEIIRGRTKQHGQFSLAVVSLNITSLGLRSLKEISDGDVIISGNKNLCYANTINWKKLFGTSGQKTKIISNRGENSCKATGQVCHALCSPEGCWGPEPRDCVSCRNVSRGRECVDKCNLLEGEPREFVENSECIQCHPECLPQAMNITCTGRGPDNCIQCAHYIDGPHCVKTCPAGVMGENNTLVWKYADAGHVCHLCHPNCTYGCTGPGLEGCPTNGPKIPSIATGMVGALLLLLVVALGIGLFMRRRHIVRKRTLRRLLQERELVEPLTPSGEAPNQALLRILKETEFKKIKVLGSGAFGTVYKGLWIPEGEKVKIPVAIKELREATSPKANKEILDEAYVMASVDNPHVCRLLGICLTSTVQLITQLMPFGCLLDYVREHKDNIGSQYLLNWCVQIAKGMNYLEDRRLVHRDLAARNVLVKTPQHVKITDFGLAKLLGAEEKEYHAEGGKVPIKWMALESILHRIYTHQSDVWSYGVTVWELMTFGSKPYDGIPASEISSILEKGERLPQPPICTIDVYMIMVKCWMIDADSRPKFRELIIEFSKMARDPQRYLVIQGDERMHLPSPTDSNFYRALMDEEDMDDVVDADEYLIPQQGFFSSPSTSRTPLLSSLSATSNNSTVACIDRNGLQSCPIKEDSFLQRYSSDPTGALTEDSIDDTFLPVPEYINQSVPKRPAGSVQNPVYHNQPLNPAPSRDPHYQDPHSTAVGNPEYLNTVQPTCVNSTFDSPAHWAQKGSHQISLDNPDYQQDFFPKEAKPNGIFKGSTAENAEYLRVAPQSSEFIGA
T1 sequence (P06213 763-1382 limits assumed): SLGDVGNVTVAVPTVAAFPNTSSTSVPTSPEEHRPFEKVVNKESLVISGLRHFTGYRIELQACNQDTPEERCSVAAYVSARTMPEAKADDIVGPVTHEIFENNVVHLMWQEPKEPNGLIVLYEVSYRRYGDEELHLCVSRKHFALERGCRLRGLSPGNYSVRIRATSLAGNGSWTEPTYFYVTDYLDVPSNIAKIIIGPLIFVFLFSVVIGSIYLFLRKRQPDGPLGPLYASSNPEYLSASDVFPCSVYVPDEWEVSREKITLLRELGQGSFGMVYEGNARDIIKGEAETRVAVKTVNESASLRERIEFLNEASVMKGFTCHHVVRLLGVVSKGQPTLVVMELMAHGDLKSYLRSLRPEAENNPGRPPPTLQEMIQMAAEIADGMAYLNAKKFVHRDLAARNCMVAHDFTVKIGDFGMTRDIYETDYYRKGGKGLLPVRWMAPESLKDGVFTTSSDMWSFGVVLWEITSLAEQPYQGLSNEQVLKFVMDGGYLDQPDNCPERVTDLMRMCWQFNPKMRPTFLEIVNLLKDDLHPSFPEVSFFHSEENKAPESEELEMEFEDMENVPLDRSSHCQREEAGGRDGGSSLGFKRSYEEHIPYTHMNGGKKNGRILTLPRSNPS
T1 sequence (P06213 28-758 partner limits assumed): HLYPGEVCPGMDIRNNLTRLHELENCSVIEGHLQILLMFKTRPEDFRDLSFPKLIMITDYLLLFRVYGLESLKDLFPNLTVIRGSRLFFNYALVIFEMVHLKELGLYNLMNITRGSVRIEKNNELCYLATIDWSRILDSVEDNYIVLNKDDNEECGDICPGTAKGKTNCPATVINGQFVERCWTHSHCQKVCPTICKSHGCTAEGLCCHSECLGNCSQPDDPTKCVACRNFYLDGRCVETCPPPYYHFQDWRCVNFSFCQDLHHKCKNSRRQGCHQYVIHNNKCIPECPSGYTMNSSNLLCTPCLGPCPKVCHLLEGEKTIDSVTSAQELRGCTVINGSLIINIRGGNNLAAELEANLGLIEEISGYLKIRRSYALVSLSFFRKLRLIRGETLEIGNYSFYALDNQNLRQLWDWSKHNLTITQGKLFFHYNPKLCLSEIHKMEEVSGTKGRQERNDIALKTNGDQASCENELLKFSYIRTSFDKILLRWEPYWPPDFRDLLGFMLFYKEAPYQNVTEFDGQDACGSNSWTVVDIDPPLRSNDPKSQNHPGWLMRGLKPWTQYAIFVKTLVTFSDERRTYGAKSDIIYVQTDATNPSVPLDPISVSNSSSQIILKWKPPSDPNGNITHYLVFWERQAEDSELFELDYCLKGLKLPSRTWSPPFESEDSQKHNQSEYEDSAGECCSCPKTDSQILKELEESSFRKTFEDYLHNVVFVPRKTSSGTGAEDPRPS

Regarding `O=C(Nc1ccc2c(O)cc(S(=O)(=O)Nc3cccc(S(=O)(=O)O)c3)cc2c1)Nc1ccc2c(O)cc(S(=O)(=O)Nc3cccc(S(=O)(=O)O)c3)cc2c1` [Compound 15, 3-{[(4-hydroxy-7-{[N-(5-hydroxy-7-{[(3-sulfophenyl)amino]sulfonyl}(2-naphthyl))carbamoyl]amino}-2-naphthyl)sulfonyl]amino}benzenesulfonic acid], in series [1], the “autophosphorylation of the insulin receptor in whole cells” value is given as “increase of autophosphorylation”. In addition, the “phosphorylation of EGFR” value in series [2] is given as “did not increase the phosphorylation of EGFR”. Moreover, in series [3], the “phosphorylation of the PDGF receptor” value is on record as “not to increase the phosphorylation”. In addition, in series [4] (p.o. by gavage (FIG. 11)), the “maximal reduction in blood glucose levels” value is 20% and the “time of maximal reduction in blood glucose after administration” value was determined as 4 h. In series [4] (p.o. by gavage, 6 hour experiment (FIG. 11)), the “onset and duration of reduction in blood glucose levels” value is “beginning one hour after administration and persisting for the entire 6 hours of the experiment”. Besides, the “blood glucose levels versus vehicle-treated group” value in series [5] is “lowered blood glucose levels below those of the vehicle-treated group by 6 hours after administration”. Besides, the acute toxicity result in series [6] is recorded as “No acute toxicity was seen”.

The values above are taken from patent publication US7071231B2, “Naphthalene ureas as glucose uptake enhancers” (Telik, Inc., priority 1999, dated 2006).
